The subject of this data set is T47D cells. It is filed as cell-based. As to conditions: serum-starved T47D cells, 96 hours, compared to DMSO or IgG1 controls. The source says:
To measure proliferation, Hoechst staining was used to stain nuclei and CellMask™ (Thermo Fisher Scientific) Deep Red was used to stain cell membranes. To measure cell death, Annexin V was used to stain phosphatidylserine on the cell surface, a marker of apoptosis, and Incucyte® Cytotox Green (Sartorius) to stain cells with compromised membrane integrity, a marker of cell death.

For the compound `CC(=O)O[C@H]1C(=O)[C@@]2(C)[C@H]([C@H](OC(=O)c3ccccc3)[C@]3(O)C[C@H](OC(=O)[C@H](O)[C@@H](NC(=O)c4ccccc4)c4ccccc4)C(C)=C1C3(C)C)[C@]1(OC(C)=O)CO[C@@H]1C[C@@H]2O` [paclitaxel], the “effect on cell death (Annexin V, Cytotox Green)” value is “increased cell death” and the “effect on cell proliferation (nuclei count, total cell area)” value is “decreased proliferation”.
